Experimental data taken from patent US20160250285A1, “NEUROPROTECTIVE PEPTIDES” (priority 2013, published 2016).
pIC50: −log10 of the molar value. Where two headings read alike, the source gives them in different places. Peptide text beside a SMILES is read from it.

Key:
[1] = tested on: primary cortical neuronal cultures; conditions: for neuroprotection, milder insult: FIG. 1i, comparison at 0.5 μM and 1 μM; for neuroprotection (neuronal viability): peptide 15 min prior to and during glutamic acid exposure, viability 24 h, MTS
Protocol: Briefly, cortical tissue from E18-E19 Sprague-Dawley rats was dissociated in Dulbecco's modified Eagle medium (DMEM; Invitrogen, Australia) supplemented with 1.3 mM L-cysteine, 0.9 mM NaHCOa, 10 units/ml papain (Sigma, USA) and 50 units/ml DNase (Sigma) and washed in cold DMEM/10% horse serum. Neurons were resuspended in Neurobasal (Invitrogen) containing 2% B27 supplement (B27; Invitrogen). Before seeding, 96-well sized glass wells (6 mm diameter, ProTech, Australia) or 96-well plastic plates (ProSciTech, Australia) were coated with poly-D-lysine overnight ([…]: 50 mg/mL; 70-150 K, Sigma). […] Neurons were plated to obtain ≈10,000 viable neurons for each well on day in vitro 11-12. […] On day in vitro 4 one third of the culture medium was removed and replaced with fresh Neurobasal/2% B27 containing the mitotic inhibitor, cytosine arabinofuraNOside (1 mM final concentration; Sigma). On day in vitro 8 one half of the culture medium was replaced with Neurobasal/2% B27.
To induce excitotoxicity, 50 μl of Neurobasal/2% B27 containing glutamic acid (200 μM) or kainic acid (400 μM) or NMDA (200 μM) was added to the culture wells (100 μM glutamic acid, 200 μM kainic acid and NMDA 100 μM final concentration). Cultures were incubated at 37° C. in the CO2 incubator for 5 minutes for glutamic acid, 45 minutes for kainic acid and 10 minutes for NMDA exposure, after which time the media was replaced with 100 μl of 50% Neurobasal/2% N2 supplement (Invitrogen) and 50% balanced salt solution (BSS; see below). Cultures were incubated for a further 24 hours at 37° C. in the CO2 incubator. The untreated controls with or without glutamic acid or kainic acid treatment received the same wash steps and media additions.
Following this step, cultures were treated as described above. Untreated controls with or without glutamic acid exposure received the same wash steps and media additions. In addition, a post-glutamic acid exposure CPP treatment (5 μM) experiment was performed for the R9 peptide and the JNKI-1D-TAT control peptide.
For pre-glutamic acid exposure experiments, neurons were exposed to peptide(s) for a 10 minute period, immediately before or 1, 2, 3, 4 or 5 hours prior to glutamic acid exposure. […] At the relevant peptide pre-treatment time, media was removed and replaced with 100 μl of Neurobasal/2%. […] Following 5-minute glutamic acid exposure, neuronal culture wells were treated as described above. For all experiments untreated controls with or without glutamic acid treatment underwent the same incubation steps and media additions.
Heparin (for injection) was obtained from Pfizer (1000 IU/ml). Two different heparin experiments were performed: 1. Peptides were incubated with heparin (20 IU/ml) in Neurobasal/B27 for 5 minutes at room temperature, before addition to culture wells (50 μl) for 15 minutes at 37° C. in the CO2 incubator. Following the incubation period, media in wells was removed and replaced with 100 μl of Neurobasal/2% B27 containing glutamic acid (100 μM), and subsequently treated as described above; 2. Media in wells was replaced with Neurobasal/2% B27 containing heparin (50 μl; 40 IU/ml) and incubated for 5 minutes at 37° C. in the CO2 incubator. After the incubation period, peptides or glutamate receptor blockers (MK801/CNQX) in Neurobasal/2% B27 (50 μl) were added to the culture wells and cultures incubated for a further 10 minutes at 37° C. in the CO2 incubator. Following the incubation period, media in wells was removed and replaced with 100 μl of Neurobasal/2% B27 containing glutamic acid (100 μM), and subsequently treated as described above. For all experiments, non-heparin treated peptide controls with glutamic acid treatment underwent the same incubation steps and media additions.
Twenty-four hours after insult, neuronal cultures were examined by light microscopy for qualitative assessment of neuronal cell viability.

[2] = tested on: intracellular calcium influx in neuronal cultures; assay: Intracellular calcium influx (Fura-2 AM) after glutamic acid; format: cell-based, rat; conditions: peptide 5 μM for 10 min, removed before 100 μM glutamic acid (FIG. 44)
Protocol: Fura-2 AM was used for intracellular calcium assessment. Representative fluorescent Fura-2 AM tracers; fluorescence intensity (FI) of neuronal cultures 30 sec before and following addition (arrow) of glutamic acid (100 μM final concentration). Peptides or glutamate receptor blockers were added to neuronal cultures for 10 min and removed (time 0) before glutamic acid. Values are mean±SE; n=3. Peptide concentration was 5 μM.
Briefly, cortical tissue from E18-E19 Sprague-Dawley rats was dissociated in Dulbecco's modified Eagle medium (DMEM; Invitrogen, Australia) supplemented with 1.3 mM L-cysteine, 0.9 mM NaHCOa, 10 units/ml papain (Sigma, USA) and 50 units/ml DNase (Sigma) and washed in cold DMEM/10% horse serum. Neurons were resuspended in Neurobasal (Invitrogen) containing 2% B27 supplement (B27; Invitrogen). Before seeding, 96-well sized glass wells (6 mm diameter, ProTech, Australia) or 96-well plastic plates (ProSciTech, Australia) were coated with poly-D-lysine overnight (50 ml/well: 50 mg/mL; 70-150 K, Sigma). Excess poly-D-lysine solution was then removed and replaced with Neurobasal (containing 2% B27; 4% fetal bovine serum; 1% horse serum; 62.5 mM glutamate; 25 mM 2-mercaptoethanol; and 30 mg/mL streptomycin and 30 mg/mL penicillin). Neurons were plated to obtain ≈10,000 viable neurons for each well on day in vitro 11-12. Neuronal cultures were maintained in a CO2 incubator (5% CO2, 95% air balance, 98% humidity) at 37° C. On day in vitro 4 one third of the culture medium was removed and replaced with fresh Neurobasal/2% B27 containing the mitotic inhibitor, cytosine arabinofuraNOside (1 mM final concentration; Sigma). On day in vitro 8 one half of the culture medium was replaced with Neurobasal/2% B27. Cultures were used on day in vitro 11 or 12 after which time they routinely consist of >97% neurons and 1-3% astrocytes (Meloni et al. 2001).

[3] = tested on: primary cortical neuronal cultures; assay: In vitro ischemia / oxygen-glucose deprivation (OGD) model, neurons; format: cell-based, rat
Protocol: Establishment of cortical cultures was as previously described (Meloni et al. 2001). Briefly, cortical tissue from E18-E19 Sprague-Dawley rats was dissociated in Dulbecco's modified Eagle medium (DMEM; Invitrogen, Australia) supplemented with 1.3 mM L-cysteine, 0.9 mM NaHCOa, 10 units/ml papain (Sigma, USA) and 50 units/ml DNase (Sigma) and washed in cold DMEM/10% horse serum. Neurons were resuspended in Neurobasal (Invitrogen) containing 2% B27 supplement (B27; Invitrogen). Before seeding, 96-well sized glass wells (6 mm diameter, ProTech, Australia) or 96-well plastic plates (ProSciTech, Australia) were coated with poly-D-lysine overnight (50 ml/well: 50 mg/mL; 70-150 K, Sigma). Excess poly-D-lysine solution was then removed and replaced with Neurobasal (containing 2% B27; 4% fetal bovine serum; 1% horse serum; 62.5 mM glutamate; 25 mM 2-mercaptoethanol; and 30 mg/mL streptomycin and 30 mg/mL penicillin). Neurons were plated to obtain ≈10,000 viable neurons for each well on day in vitro 11-12. Neuronal cultures were maintained in a CO2 incubator (5% CO2, 95% air balance, 98% humidity) at 37° C. On day in vitro 4 one third of the culture medium was removed and replaced with fresh Neurobasal/2% B27 containing the mitotic inhibitor, cytosine arabinofuraNOside (1 mM final concentration; Sigma). On day in vitro 8 one half of the culture medium was replaced with Neurobasal/2% B27. Cultures were used on day in vitro 11 or 12 after which time they routinely consist of >97% neurons and 1-3% astrocytes (Meloni et al. 2001).
The in vitro ischemia model used for primary cortical neuronal cultures was performed as previously described (Meloni et at 2011) Briefly, culture media was removed from wells (glass 96-well plate format) and washed with 315 μl of glucose free balanced salt solution (BSS; mM: 116 NaCl, 5.4 KCl, 1.8 CaCl2, 0.8 MgSO4, 1 NaH2PO4; pH 6.9) before the addition of 60 μl BSS containing cell penetrating or control peptides (see Table 1). A non-peptide positive control consisting of the glutamate receptor blockers (5 μM MK801/5 μM 6-cyano-7-nitroquinoxaline: MK801/CNQX) was also included. In vitro ischemia was initiated by placing wells in an anaerobic incubator (Don Whitely Scientific, England; atmosphere of 5% CO2, 10% H2 and 85% argon, 98% humidity) at 37° C. for 55 minutes. Upon removal from the anaerobic incubator, 60 μl of Neurobasal/2% N2 supplement was added to the wells and cultures incubated for a further 24 hours at 37° C. in the CO2 incubator. Control cultures received the same BSS wash procedures and media additions as ischemic treated cultures before incubation at 37° C. in the CO2 incubator.
Control cultures underwent the same BSS wash procedures and media additions as OGD treated cultures.
Twenty-four hours after insult, neuronal cultures were examined by light microscopy for qualitative assessment of neuronal cell viability. Neuronal viability was quantitatively measured by 3-(4,5,dimethyliazol-2-yl)-5-(3-carboxymethoxy-phenyl)-2-(4-sulfophenyl)-2H-tetrazolium salt (MTS) assay (Promega, Australia). The MTS assay measures the cellular conversion of the tetrazolium salt to a water-soluble brown formazan salt, which is detected spectrophotometrically at 490 nm. MTS absorbance data were converted to reflect proportional cell viability relative to both the untreated and treated controls, with the untreated control taken as 100% viability, and presented as mean±SEM. […] Viability data was analysed by ANOVA, followed by post-hoc Fischer's PLSD test, with P<0.05 values considered statistically significant. Four- to six wells were used in all assays.

[4] = tested on: permanent middle cerebral artery occlusion (MCAO) stroke model; assay: Rat permanent middle cerebral artery occlusion (MCAO) stroke model; format: in vivo; conditions: 1 μmol/kg IV 30 min post-MCAO; infarct volume 24 h post-MCAO (FIGS. 5, 27)
Protocol: Administration of peptide (DR9: rrrrrrrrr-NH2; R12, R15, R18, protamine sulphate; protamine) or vehicle (saline: 0.9% NaCl) treatment solution was performed at 30 min post-MCAO. The peptide treatment comprised DR9 in saline (600 μl) to provide an intravenous loading dose of 1 μmol/kg or 1000 nmol/kg given over 5-6 min via the right jugular vein.
This study was approved by the Animal Ethics Committee of the University of Western Australia. Male Sprague Dawley rats weighing 270 g to 350 g were kept under controlled housing conditions with 12 hour light-dark cycle with free access to food and water. Experimental animals were fasted overnight and subjected to permanent middle cerebral artery occlusion (MCAO) as follows.
Anaesthesia was induced with 4% isoflurane and a 2:1 mix of N2O and O2 via mask. Anaesthesia was maintained at 1.7-2% isoflurane. Cerebral blood flow (CBF) was monitored continuously using laser Doppler flowmetry (Blood FlowMeter, AD Instruments, Sydney, Australia). The probe was located 1 mm caudal and 4 mm lateral (right) to the bregma. A cannula was inserted in the right femoral artery to continuously monitor blood pressure and to provide samples for blood glucose and blood gas readings. Blood glucose was measured using a glucometer (MediSense Products, Abbott Laboratories, Bedford, Mass., USA) and blood gases were measured using a blood gas analyser (ABL5, Radiometer, Copenhagen, Denmark). Blood pressure was maintained at 80-100 mmHg. During surgery, rectal temperature was maintained at 37±0.5° C. and warming applied with a fan heater when necessary. For intravenous infusions, a length of PVC line primed with heparinised saline was tied in place in the right jugular vein, then externalised through a dorsal mid-scapular incision to a tether/swivel system (Instech Laboratories, Philadelphia, USA) designed to permit free movement.
The right common carotid artery (CCA) was exposed via a ventral neck incision. […] The isolated section of the ECA was ligated and cauterised to create a stump. The carotid body was removed and the pterygopalatine artery was ligated. A 4-0 nylon monofilament with a 0.39 mm diameter silicone tip (Doccol, Redlands, Calif., USA) was inserted through the ECA stump into the CCA and advanced rostrally into the internal carotid artery (ICA) until the laser Doppler flowmetry recorded a >30% decrease from baseline of cerebral blood flow. The monofilament was secured in two places (at the base of the ECA stump and on the ICA) for the remainder of the experiment. Animals were given post-operative analgesia consisting of pethidine (3 mg/kg intramuscular) and bupivacaine (1.5 mg/kg subcutaneously) at head and leg incision sites.
Post-surgery animals were allowed to recover in a climate-controlled chamber and their core body temperature monitored and maintained at 37±0.5° C. by a cooling/heating fan when required for 3-4 hours.
Animals were sacrificed 24 hours post-MCAO with intra-peritoneal injections of sodium pentobarbitone (900 mg/kg). […] Slices were scanned and images were analysed by an operator blind to treatment status using ImageJ 3rd edition (NIH, USA). The total infarct volume was determined by adding the areas of infarcted tissue on both sides of the 2 mm sections. These measured areas were multiplied by half slice thickness (1 mm), and corrected for cerebral oedema by multiplying the ratio of affected to normal hemisphere areas. […]

N=C(N)NCCC[C@H](N)C(=O)O [Peptide R1, H-R-OH]
neuroprotection, milder insult [1]: ineffective | neuroprotection (neuronal viability) [1]: no to little neuroprotection | pIC50 ([1]; read-out: IC50: Glutamic acid model, Table 4, polyarginine peptides, from dose response graph FIG. 1e): < 5.30

N=C(N)NCCC[C@H](NC(=O)[C@H](CCCNC(=N)N)NC(=O)[C@@H](N)CCCNC(=N)N)C(=O)O [Peptide R3, H-RRR-OH] (H-Arg-Arg-Arg-OH)
pIC50 [1]: < 5.30 | neuroprotection, milder insult [1]: ineffective | neuroprotection (neuronal viability) [1]: no to little neuroprotection

N=C(N)NCCC[C@H](NC(=O)[C@H](CCCNC(=N)N)NC(=O)[C@H](CCCNC(=N)N)NC(=O)[C@H](CCCNC(=N)N)NC(=O)[C@H](CCCNC(=N)N)NC(=O)[C@@H](N)CCCNC(=N)N)C(=O)O [Peptide R6, H-RRRRRR-OH]
pIC50 [1]: < 5.30 | neuroprotection, milder insult [1]: ineffective

Ac-PLFAE-RRRRRRRRR-NH2 (Ac-PLFAERRRRRRRRR-NH2) [Cal/R9]
neuroprotection (neuronal viability) [1]: moderate to high level neuroprotection

GRKKRRQRRRG [TAT, reference compound]
calcium influx after glutamic acid [2]: to varying degrees reduced calcium influx | neuroprotection when peptide washed-out prior to glutamic acid exposure ([1]; 15 min incubation, wash-out before insult (FIG. 1c)): loss of efficacy

H-AAVALLPAVLLALLAP-OH [kFGF, reference compound]
neuroprotection (neuronal viability) [1]: ineffective

H-AAVALLPAVLLALLAP-PPRPKRPTTLNLFPQVPRSQDT-OH (H-AAVALLPAVLLALLAPPPRPKRPTTLNLFPQVPRSQDT-OH) [kFGF-JNKI-1, reference compound]
neuroprotection (neuronal viability) [1]: not neuroprotective

H-EEEEEEEEE-RRRRRRRRR-OH (H-EEEEEEEEERRRRRRRRR-OH) [E9/R9, reference compound]
neuroprotection (neuronal viability) ([1]; listed as E91R9): no protection

H-GRKKRRQRRR-PPRPKRPTTLNLFPQVPRSQDT-OH (H-GRKKRRQRRRPPRPKRPTTLNLFPQVPRSQDT-OH) [TAT-JNKI-1, reference compound]
calcium influx after glutamic acid [2]: to varying degrees reduced calcium influx | neuroprotection (neuronal viability) [1]: neuroprotective

H-KETWWETWWTEWSQPKKKRKV-NH2 [Pep-1, reference compound]
pIC50 ([3]; 24 h): < 4.82 | lower concentrations at which neuroprotective ([3]; FIG. 3a): 1 to 5 µM | neuroprotection ([3]; peptide present during in vitro ischemia and at 50% dose after (FIG. 3a)): neuroprotective following in vitro ischemia at lower concentrations

H-RRERRRRSCAGCSRARGSCRSCRR-NH2 (cysteine pairing not given here) [NCXBP3]
neuroprotection (neuronal viability) [1]: high levels of protection

H-RRRRRRRR-OH [Peptide R8]
concentration at which (significant) neuroprotection displayed ([1]; dose response studies FIGS. 6, 7, 8): 5 µM | neuroprotection (neuronal viability) [1]: moderate to high level neuroprotection

H-RRRRRRRRRPGRVVGGRRRRRRRRR-OH [R9/tPA/R9]
pIC50 [1]: 6.54 | order of potency ([1]; dose response studies, glutamate model): potency between R12 and R18 | neuroprotection (neuronal viability) [1]: highly effective

H-YARAAARQARA-OH [PTD-4, reference compound]
neuroprotection (neuronal viability) [1]: little to no neuroprotective properties | neuroprotection (neuronal viability) ([1]; listed as PTA4): largely ineffective

H-rrrrrrrrr-NH2 [D-R9]
reduction of infarct volume (brain damage) [4]: approximately 20% | calcium influx after glutamic acid [2]: to varying degrees reduced calcium influx | effect of heparin on neuroprotective action ([1]; heparin 20 IU/ml with peptide or 40 IU/ml on cultures (FIGS. 39, 40)): blocks neuroprotective actions

PRRRRSSRRPVRRRRRPRVSRRRRRGGRRRR [Ptm2]
neuroprotection when added for 15 minutes after OGD ([3]; FIGS. 31, 20, 22, 1 μM and 5 μM in FIG. 31): neuroprotective | neuroprotection in the OGD model (overall statement) ([3]; discussion summary): neuroprotective | neuroprotection (neuronal viability) [1]: neuroprotective

PRRRRSSSRPVRRRRRPRVSRRRRRGGRRRR [Ptm3]
neuroprotection (neuronal viability) [1]: neuroprotective
